Reference: ChEMBL document CHEMBL1154225, “Design and synthesis of bile acid-based amino sterols as antimicrobial agents” (Bioorg Med Chem Lett, 2009)
Values after ≈ are worked out from the molar mass of the structure shown.

What was measured:
Type in all cases: functional, organism-based
Pseudomonas aeruginosa = experiment: Antibacterial activity against Pseudomonas aeruginosa ATCC BAA-427 after 24 hrs by NCCLS method
Staphylococcus aureus = experiment: Antibacterial activity against Staphylococcus aureus ATCC 25923 after 24 hrs by NCCLS method
Candida albicans = experiment: Antifungal activity against Candida albicans after 48 hrs by microbroth dilution technique
Cryptococcus neoformans = experiment: Antifungal activity against Cryptococcus neoformans after 72 hrs by microbroth dilution technique
Sporothrix schenckii = experiment: Antifungal activity against Sporothrix schenckii after 72 hrs by microbroth dilution technique
[1] = tested on: Trichophyton mentagrophytes; experiment: Antifungal activity against Trichophyton mentagrophytes after 96 hrs by microbroth dilution technique
Aspergillus fumigatus = experiment: Antifungal activity against Aspergillus fumigatus AF-27 after 72 hrs by microbroth dilution technique; conditions: AF-27, 72 h
Candida parapsilosis = experiment: Antifungal activity against Candida parapsilosis ATCC 22019 after 48 hrs by microbroth dilution technique; conditions: Lodderomyces parapsilosis, ATCC 22019, 48 h
Escherichia coli = experiment: Antibacterial activity against Escherichia coli ATCC 9637 after 24 hrs by NCCLS method
Klebsiella pneumoniae = experiment: Antibacterial activity against Klebsiella pneumoniae ATCC 27736 after 24 hrs by NCCLS method
[2] = Pseudomonas aeruginosa, ATCC BAA-427, 24 h
[3] = Escherichia coli, ATCC 9637, 24 h
[4] = Pseudomonas aeruginosa, ATCC BAA-427, 24 h, read-out: IC50
[5] = Klebsiella pneumoniae, ATCC 27736, 24 h
[6] = Escherichia coli, ATCC 9637, 24 h, read-out: IC50
[7] = Klebsiella pneumoniae, ATCC 27736, 24 h, read-out: IC50

Molecule	MIC (Pseudomonas aeruginosa; [2]) [µg/mL]	MIC (Staphylococcus aureus; ATCC 25923, 24 h) [µg/mL]	MIC (Candida albicans) [µg/mL]	MIC (Cryptococcus neoformans) [µg/mL]	MIC (Sporothrix schenckii) [µg/mL]	MIC [1] [µg/mL]	MIC (Aspergillus fumigatus) [µg/mL]	MIC (Candida parapsilosis) [µg/mL]	MIC (Escherichia coli; [3]) [µg/mL]	IC50 (Staphylococcus aureus; ATCC 25923, 24 h) [µg/mL]	MIC (Klebsiella pneumoniae; [5]) [µg/mL]	IC50 (Candida albicans) [µg/mL]	IC50 (Cryptococcus neoformans) [µg/mL]	IC50 (Sporothrix schenckii) [µg/mL]	IC50 [1] [µg/mL]	IC50 (Aspergillus fumigatus) [µg/mL]	IC50 (Candida parapsilosis) [µg/mL]	IC50 (Escherichia coli; [6]) [µg/mL]	IC50 (Klebsiella pneumoniae; [7]) [µg/mL]	other results
COC(=O)CC[C@@H](C)[C@H]1CC[C@H]2[C@@H]3CC[C@@H]4C[C@](O)(CN=[N+]=[N-])CC[C@]4(C)[C@H]3C[C@H](O)[C@]12C	> 50	> 50	> 50	> 50	> 50	> 50	> 50	> 50	> 50											
COC(=O)CC[C@@H](C)[C@H]1CC[C@H]2[C@@H]3[C@H](O)C[C@@H]4C[C@H](O)CC[C@]4(C)[C@H]3C[C@H](O)[C@]12C [CHOLIC ACID, METHYL ESTER]	> 50	> 50	> 50	> 50	> 50	> 50	> 50	> 50	> 50											
GENTAMICIN																				MIC (Pseudomonas aeruginosa): 25 µg/mL; MIC (Staphylococcus aureus): 6.25 µg/mL; MIC (Klebsiella pneumoniae): 0.78 µg/mL; MIC (Escherichia coli): 0.18 µg/mL
COC(=O)CC[C@@H](C)[C@H]1CC[C@H]2[C@@H]3CC[C@@H]4C[C@H](O)CC[C@]4(C)[C@H]3C[C@H](O)[C@]12C [METHYL DEOXYCHOLATE]	> 50	> 50	> 50	> 50	> 50	> 50	> 50	> 50	> 50											
COC(=O)CC[C@@H](C)[C@H]1CC[C@H]2[C@@H]3CC[C@@H]4C[C@](O)(CN)CC[C@]4(C)[C@H]3C[C@H](O)[C@]12C	> 50	25 (≈ 57.4 µM)	50 (≈ 115 µM)	50 (≈ 115 µM)	25 (≈ 57.4 µM)	25 (≈ 57.4 µM)	50 (≈ 115 µM)	> 50	> 50	14.6 (≈ 33.4 µM)	50 (≈ 115 µM)	50 (≈ 115 µM)	50 (≈ 115 µM)	12.6 (≈ 29 µM)	24.9 (≈ 57.1 µM)	50 (≈ 115 µM)	> 50	> 50		IC50 (Pseudomonas aeruginosa; [4]): > 50 µg/mL; IC50 (Klebsiella pneumoniae): Not Active
COC(=O)CC[C@@H](C)[C@H]1CC[C@H]2[C@@H]3[C@H](O)C[C@@H]4C[C@](O)(CN)CC[C@]4(C)[C@H]3C[C@H](O)[C@]12C	> 50	25 (≈ 55.4 µM)	50 (≈ 111 µM)	> 50	50 (≈ 111 µM)	25 (≈ 55.4 µM)	> 50	> 50	> 50	18.4 (≈ 40.8 µM)	25 (≈ 55.4 µM)	> 50	> 50	50 (≈ 111 µM)	21.4 (≈ 47.4 µM)	> 50	> 50	> 50	18.4 (≈ 40.8 µM)	IC50 (Pseudomonas aeruginosa; [4]): > 50 µg/mL
COC(=O)CC[C@@H](C)[C@H]1CC[C@H]2[C@@H]3[C@H](O)C[C@@H]4C[C@](O)(CN=[N+]=[N-])CC[C@]4(C)[C@H]3C[C@H](O)[C@]12C	> 50	> 50	> 50	> 50	> 50	> 50	> 50	> 50	> 50											
COC(=O)CC[C@@H](C)[C@H]1CC[C@H]2[C@@H]3[C@H](O)C[C@@H]4C[C@](O)(CNCCN)CC[C@]4(C)[C@H]3C[C@H](O)[C@]12C	50 (≈ 101 µM)	6.25 (≈ 12.6 µM)	25 (≈ 50.5 µM)	25 (≈ 50.5 µM)	25 (≈ 50.5 µM)	6.25 (≈ 12.6 µM)	50 (≈ 101 µM)	25 (≈ 50.5 µM)	25 (≈ 50.5 µM)	4.12 (≈ 8.33 µM)	6.25 (≈ 12.6 µM)	24 (≈ 48.6 µM)	14.6 (≈ 29.4 µM)	18.3 (≈ 37 µM)	6.25 (≈ 12.6 µM)	50 (≈ 101 µM)	16.4 (≈ 33.2 µM)	17.2 (≈ 34.8 µM)	4.68 (≈ 9.46 µM)	IC50 (Pseudomonas aeruginosa): Not Active
COC(=O)CC[C@@H](C)[C@H]1CC[C@H]2[C@@H]3CC[C@@H]4C[C@](O)(CNCCN)CC[C@]4(C)[C@H]3C[C@H](O)[C@]12C	50 (≈ 104 µM)	6.25 (≈ 13.1 µM)	> 50	25 (≈ 52.2 µM)	12.5 (≈ 26.1 µM)	6.25 (≈ 13.1 µM)	12.5 (≈ 26.1 µM)	25 (≈ 52.2 µM)	50 (≈ 104 µM)	5.14 (≈ 10.7 µM)	6.25 (≈ 13.1 µM)	25 (≈ 52.3 µM)	17.2 (≈ 36 µM)	3.36 (≈ 7.02 µM)	6.25 (≈ 13.1 µM)	8.14 (≈ 17 µM)	18.4 (≈ 38.4 µM)		5.21 (≈ 10.9 µM)	IC50 (Pseudomonas aeruginosa): Not Active; IC50 (Escherichia coli): Not Active
OC(Cn1cncn1)(Cn1cncn1)c1ccc(F)cc1F [FLUCONAZOLE]			0.5 (≈ 1.63 µM)	1.9 (≈ 6.2 µM)	2 (≈ 6.53 µM)	1 (≈ 3.27 µM)	2 (≈ 6.53 µM)	1 (≈ 3.27 µM)												
